Laboratory results taken from article PMC8197367, “Comparative Antimicrobial Activity of Hp404 Peptide and Its Analogs against Acinetobacter baumannii” (International Journal of Molecular Sciences, 2021).
Converted amounts (≈) assume the structure as drawn. Where no end group is shown, it is not given here.

Experiments:
[1] = Calcein leakage assay; settings: PC:CH:SM (1:1:1, w/w) LUVs (10 μM) loaded with calcein; excitation 480 nm, emission 520 nm; various peptide concentrations
Experimental: (§5) Peptide-induced membrane permeability was monitored be measuring calcein dye emission in calcein-loaded LUVs [49]. We prepared the lipid mixture, and PC:CH (2:1, w/w) and PC:CH:SM liposomes (1:1:1, w/w) were prepared with 70 mM calcein buffer. A Sephadex G-50 column was used to separate calcein-loaded liposomes from free calcein dye. The LUVs (10 μM) were mixed with various concentrations of the peptide on a 96-well black plate. The fluorescence intensity was measured at excitation and emission wavelengths of 480 and 520 nm, respectively.

[2] = test system: P. aeruginosa ATCC 27853; experiment: MIC, broth microdilution; type: cell-based; settings: two-fold broth microdilution, NB, 2 × 10^5 CFU/mL, 37 °C, 18 h, read at 600 nm, three independent experiments
Experimental: (§1) The experiment was performed in triplicate.

[3] = test system: K. pneumoniae KCTC 2208; experiment: MIC, broth microdilution; type: cell-based; settings: two-fold broth microdilution, NB, 2 × 10^5 CFU/mL, 37 °C, 18 h, read at 600 nm, three independent experiments
Experimental: as §1

[4] = test system: mouse red blood cells; experiment: Hemolytic assay; type: cell-based; settings: 50 μM peptide (highest tested concentration); 8% mouse red blood cells in PBS, 1 h, 37 °C, absorbance 414 nm, vs 0.1% Triton X-100
Experimental: The hemolytic activity of the peptides against mouse erythrocytes was determined using red blood cells. Fresh mouse red blood cells were washed three times and resuspended in PBS to attain an 8% dilution. Peptides were serially diluted to a final concentration of 50 μM. Next, 100 µL peptide solution was added to 100 μL of mouse red blood cells, wrapped with aluminum foil and incubated for 1 h at 37 °C. The mixture was then centrifuged at 1500× g for 10 min. The supernatant was transferred into a new 96-well plate, and the absorbance of the supernatant was measured at 414 nm. As positive and negative controls, […] in mouse red blood cells were used. Hemolysis was evaluated according to the following equation:
Hemolysis (%) = [(Abs414 nm in the peptide solution − Abs414 nm in PBS)/(Abs414 nm in 0.1% Triton X-100 − Abs414 nm in PBS)] × 100.

[5] = calcein-loaded LUVs, Figure 4c
Experimental: Peptide-induced membrane permeability was monitored be measuring calcein dye emission in calcein-loaded LUVs. We prepared the lipid mixture, and PC:CH (2:1, w/w) and PC:CH:SM liposomes (1:1:1, w/w) were prepared with 70 mM calcein buffer. A Sephadex G-50 column was used to separate calcein-loaded liposomes from free calcein dye. The LUVs (10 μM) were mixed with various concentrations of the peptide on a 96-well black plate. The fluorescence intensity was measured at excitation and emission wavelengths of 480 and 520 nm, respectively.

[6] = test system: HaCaT cells; settings: 50 μM peptide, 24 h, MTT assay
Experimental: The cytotoxicity of the peptides against mammalian cells was calculated using the MTT assay. Human keratinocyte HaCaT cells were incubated in Dulbecco’s modified Eagle’s medium (DMEM) supplemented with 10% fetal bovine serum and 1% penicillin at 37 °C with 5% CO2. HaCaT cells were added at 2 × 10^5 cells/mL to DMEM supplemented with 10% fetal bovine serum and placed in 96-well plates. The plates were incubated overnight at 37 °C in a CO2 incubator. Peptides were serially diluted two-fold in DMEM, added to the cell cultures and incubated for 24 h at 37 °C. MTT solution (5 mg/mL) was added to each well and incubated for 1 h at 37 °C. The media was discarded, and the formazan crystals were dissolved in 100 μL dimethyl sulfoxide. The absorbance was measured using a Versa-Max microplate ELISA reader (Molecular Devices, Sunnyvale, CA, USA) at 570 and 650 nm. As a […], 0.1% Triton X-100 was used.

[7] = test system: S. typhimurium ATCC 14028; experiment: MIC, broth microdilution; type: cell-based, Salmonella typhimurium; settings: two-fold broth microdilution, NB, 2 × 10^5 CFU/mL, 37 °C, 18 h, read at 600 nm, three independent experiments
Experimental: as §1

[8] = test system: B. cereus KCTC 1012; experiment: MIC, broth microdilution; type: cell-based, Bacillus cereus; settings: two-fold broth microdilution, TSB, 2 × 10^5 CFU/mL, 37 °C, 18 h, read at 600 nm, three independent experiments
Experimental: as §1

[9] = Calcein leakage assay; settings: PC:CH LUVs (10 μM) loaded with calcein; excitation 480 nm, emission 520 nm; various peptide concentrations
Experimental: as §5

[10] = test system: A. baumannii KCTC 2508; experiment: MIC, broth microdilution; type: cell-based, Acinetobacter baumannii; settings: two-fold broth microdilution, NB, 2 × 10^5 CFU/mL, 37 °C, 18 h, read at 600 nm, no added salt, three independent experiments
Experimental: as §1

[11] = test system: E. coli ATCC 25922; experiment: MIC, broth microdilution; type: cell-based, Escherichia coli; settings: two-fold broth microdilution, LB, 2 × 10^5 CFU/mL, 37 °C, 18 h, read at 600 nm, three independent experiments
Experimental: as §1

[12] = test system: S. aureus ATCC 25923; experiment: MIC, broth microdilution; type: cell-based, Staphylococcus aureus; settings: two-fold broth microdilution, TSB, 2 × 10^5 CFU/mL, 37 °C, 18 h, read at 600 nm, three independent experiments
Experimental: as §1

[13] = test system: S. aureus ATCC 29213; experiment: MIC, broth microdilution; type: cell-based, Staphylococcus aureus; settings: two-fold broth microdilution, TSB, 2 × 10^5 CFU/mL, 37 °C, 18 h, read at 600 nm, three independent experiments
Experimental: as §1

[14] = test system: L. monocytogenes KCTC 3710; experiment: MIC, broth microdilution; type: cell-based, Listeria monocytogenes; settings: two-fold broth microdilution, BHI, 2 × 10^5 CFU/mL, 37 °C, 18 h, read at 600 nm, three independent experiments
Experimental: as §1

[15] = test system: A. baumannii biofilms; experiment: Live biofilm viability assay, SYTO 9 imaging; type: cell-based, Acinetobacter baumannii; settings: preformed biofilm treated with 50 μM for 24 h; A. baumannii including strains isolated from patients; EVOS FL Auto 2
Experimental: An A. baumannii biofilm viability assay was performed by staining with Syto9 dye. Acinetobacter baumannii strains were diluted to approximately 5 × 10^5 CFU/mL and incubated for 24 h. Biofilms of A. baumannii strains were washed with PBS and treated with 25 and 50 μM peptides and antibiotics for 24 h. Biofilms were stained with SYTO 9 diluted in PBS and the biofilm was visualized using an EVOS™ FL Auto 2 Imaging System (Thermo Fisher Scientific, Waltham, MA, USA).

[16] = test system: A. baumannii #3; experiment: microbe, parasite or virus in culture; settings: 18 h
Text: (§2) Staphylococcus aureus ATCC 25923, S. aureus ATCC 29213, P. aeruginosa ATCC 27853, Escherichia coli ATCC 25922 and Salmonella typhimurium ATCC 14028 strains were obtained from the American Type Culture Collection (ATCC, Manassas, VA, USA). Listeria monocytogenes KCTC 3710, Bacillus cereus KCTC 1012, K. pneumoniae KCTC 2208 and A. baumannii KCTC 2508 were obtained from the Korean Collection for Type Cultures (KRIBB, Daejeon, South Korea). Clinical isolates of A. baumannii strains were collected from Eulji University Hospital (Seoul, South Korea).
(§3) Hp1404 and its analog peptides activity against both gram-positive and gram-negative bacterial strains were tested using the broth microdilution method. Briefly, S. aureus (ATCC 25923, ATCC 29213) and B. cereus KCTC 1012 were cultured overnight at 37 °C in tryptic soy broth (TSB). P. aeruginosa ATCC 27853, K. pneumoniae KCTC 2208, A. baumannii KCTC 2508 and S. typhimurium ATCC 14028 were cultured overnight at 37 °C in nutrient broth (NB). E. coli ATCC 25922 was cultured overnight at 37 °C in luria bertani (LB). L. monocytogenes KCTC 3710 was cultured overnight at 37 °C in brain heart infusion (BHI). The cultures were diluted with fresh medium at a density of 2 × 10^5 CFU/mL. Peptides were serially diluted in sodium phosphate buffer (pH 7.2) to a final concentration of 25 μM. In a 96-well plate, 50-μL bacterial aliquots were mixed with 50 μL peptide solution. After incubation at 37 °C for 18 h, the MIC was determined using a plate reader at 600 nm. The experiment was performed in triplicate.

[17] = test system: A. baumannii 719705; experiment: microbe, parasite or virus in culture
Text: as §2, §3

[18] = test system: A. baumannii #4; experiment: microbe, parasite or virus in culture; settings: 18 h
Text: as §2, §3

[19] = test system: A. baumannii #2; experiment: microbe, parasite or virus in culture; settings: 18 h
Text: as §2, §3

[20] = test system: A. baumannii 907233; experiment: microbe, parasite or virus in culture
Text: as §2, §3

[21] = test system: A. baumannii 409081; experiment: microbe, parasite or virus in culture
Text: as §2, §3

[22] = test system: A. baumannii #3; experiment: Biofilm inhibition, crystal violet assay; type: cell-based, Acinetobacter baumannii; settings: NB with 0.2% glucose, 24 h, 37 °C, 595 nm, highest concentration 25 μM
Experimental: (§4) Acinetobacter baumannii KCTC 2508, #3, #4, 409081 and 719705 were incubated overnight at 37°C to mid-log phase in NB medium. Bacterial cells (5 × 10^5 CFU/mL) were suspended in NB containing 0.2% glucose. A final concentration of 25 μM of peptides and antibiotics (meropenem and polymyxin B) was prepared with the bacterial suspensions in 96-well tissue culture plates and incubated at 37 °C for 24 h. The culture media was carefully removed, and biofilms were fixed with 100% methanol for 15 min and then stained with 0.1% crystal violet for 1 h and rinsed three times with distilled water. After air-drying, the biofilm mass was dissolved in 100 μL of 95% ethanol and measured at 595 nm using a microplate reader.

[23] = test system: A. baumannii 719705; experiment: Biofilm inhibition, crystal violet assay; type: cell-based, Acinetobacter baumannii; settings: NB with 0.2% glucose, 24 h, 37 °C, 595 nm, highest concentration 25 μM
Experimental: as §4

[24] = test system: A. baumannii KCTC 2508; experiment: Biofilm inhibition, crystal violet assay; type: cell-based, Acinetobacter baumannii; settings: NB with 0.2% glucose, 24 h, 37 °C, 595 nm, highest concentration 25 μM
Experimental: as §4

[25] = test system: A. baumannii 409081; experiment: Biofilm inhibition, crystal violet assay; type: cell-based, Acinetobacter baumannii; settings: NB with 0.2% glucose, 24 h, 37 °C, 595 nm, highest concentration 25 μM
Experimental: as §4

Compound	calcein release (fluorescence intensity) [1]	MIC [2] [µM]	MIC [3] [µM]	hemolytic activity [4]	calcein leakage fluorescence (bioimaging) [5]	MIC [7] [µM]	MIC [8] [µM]	calcein release (fluorescence intensity) [9]	MIC [10] [µM]	MIC [11] [µM]	MIC [12] [µM]	MIC [13] [µM]	MIC [14] [µM]	biofilm reduction by SYTO 9 fluorescence imaging [15]	concentration that inhibited biofilm formation [22] [µM]	concentration that inhibited biofilm formation [24] [µM]	concentration that inhibited biofilm formation [25] [µM]	other results
GILGKLWEGVKSIA-NH2 [Hp1404-A]	did not release calcein	>25	>25	no hemolytic activity	no fluorescence was observed	25	>25	did not release calcein	25	>25	12.5	>25	>25					Cell viability [6]: 100%
polymyxin B [reference compound]														did not decrease biofilm formation	6.25	6.25	6.25	MIC ([16]; A. baumannii #3 isolated from patient, broth microdilution, 37 °C, three independent experiments): 0.78 µM; MIC ([17]; A. baumannii 719705 isolated from patient, broth microdilution, 37 °C, 18 h, three independent experiments): 0.78 µM; MIC ([18]; A. baumannii #4 isolated from patient, broth microdilution, 37 °C, three independent experiments): 0.39 µM; MIC ([19]; A. baumannii #2 isolated from patient, broth microdilution, 37 °C, three independent experiments): 0.39 µM; MIC ([20]; A. baumannii 907233 isolated from patient, broth microdilution, 37 °C, 18 h, three independent experiments): 0.78 µM; MIC ([21]; A. baumannii 409081 isolated from patient, broth microdilution, 37 °C, 18 h, three independent experiments): 0.78 µM; concentration that inhibited biofilm formation [23]: 6.25 µM
C[C@@H](O)[C@H]1C(=O)N2C(C(=O)O)=C(S[C@@H]3CN[C@H](C(=O)N(C)C)C3)[C@H](C)[C@H]12 [Meropenem, meropenem, reference compound]														did not decrease biofilm formation	≥ 25	6.25	≥ 25	MIC ([16]; Acinetobacter baumannii): 50 µM (≈ 19.2 µg/mL); MIC ([17]; Acinetobacter baumannii, 719705, 18 h): 100 µM (≈ 38.3 µg/mL); MIC ([18]; Acinetobacter baumannii): 100 µM (≈ 38.3 µg/mL); MIC ([19]; Acinetobacter baumannii): 100 µM (≈ 38.3 µg/mL); MIC ([20]; Acinetobacter baumannii, 907233, 18 h): 200 µM (≈ 76.7 µg/mL); MIC ([21]; Acinetobacter baumannii, 409081, 18 h): 200 µM (≈ 76.7 µg/mL)
GILGKLWEGVKSIK-NH2 [Hp1404-K]	did not release calcein	>25	>25	no hemolytic activity	no fluorescence was observed	12.5	>25	did not release calcein	25	>25	25	>25	>25					
